Measurements reported in PubChem BioAssay AID2060906 (Molecular Pharmacology Branch, DTP, NCI, 2025).
Each block holds one compound with its values, some of them ahead of it.

Tested on: 485176-168-R4-J1-PDC complex spheroid growth
Test: Anticancer human tumor 485176-168-R4-J1-PDC patient-derived pancreatic adenocarcinoma cell line growth inhibition [RAS]
Conditions: for IC50: curve of first compound; for viability, T/C: stronger effect = lower value
Procedure, shortened: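 Agents were tested in combination matrices in half-log decrements from a top concentration at or near clinical Cmax (10 microM if undetermined). Targets were multi-cell spheroids of tumour lines plus HUVEC and MSC stromal cells.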

[1] = second compound 0.000949 µM, first compound 0.0316 µM
[2] = second compound 0.000949 µM, first compound 0.1 µM
[3] = second compound 0.000949 µM, first compound 0.316 µM
[4] = second compound 0.000949 µM, first compound 1 µM
[5] = second compound 0.003 µM, first compound 0.0316 µM
[6] = second compound 0.003 µM, first compound 0.1 µM
[7] = second compound 0.003 µM, first compound 0.316 µM
[8] = second compound 0.003 µM, first compound 1 µM
[9] = second compound 0.00949 µM, first compound 0.0316 µM
[10] = second compound 0.00949 µM, first compound 0.1 µM
[11] = second compound 0.00949 µM, first compound 0.316 µM
[12] = second compound 0.00949 µM, first compound 1 µM
[13] = second compound 0.03 µM, first compound 0.0316 µM
[14] = second compound 0.03 µM, first compound 0.1 µM
[15] = second compound 0.03 µM, first compound 0.316 µM
[16] = second compound 0.03 µM, first compound 1 µM
[17] = second compound 0.0949 µM, first compound 0.0316 µM
[18] = second compound 0.0949 µM, first compound 0.1 µM
[19] = second compound 0.0949 µM, first compound 0.316 µM
[20] = second compound 0.0949 µM, first compound 1 µM
[21] = second compound 0.3 µM, first compound 0.0316 µM
[22] = second compound 0.3 µM, first compound 0.1 µM
[23] = second compound 0.3 µM, first compound 0.316 µM
[24] = second compound 0.3 µM, first compound 1 µM
[25] = second compound 0.000949 µM, first compound 3.16 µM
[26] = second compound 0.000949 µM, first compound 10 µM
[27] = second compound 0.003 µM, first compound 3.16 µM
[28] = second compound 0.003 µM, first compound 10 µM
[29] = second compound 0.00949 µM, first compound 3.16 µM
[30] = second compound 0.00949 µM, first compound 10 µM
[31] = second compound 0.03 µM, first compound 3.16 µM
[32] = second compound 0.03 µM, first compound 10 µM
[33] = second compound 0.0949 µM, first compound 3.16 µM
[34] = second compound 0.0949 µM, first compound 10 µM
[35] = second compound 0.3 µM, first compound 3.16 µM
[36] = second compound 0.3 µM, first compound 10 µM
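Further: spheroids exposed to compounds for seven days before readout.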
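Wherever viability, T/C is given: luminescence viability expressed relative to DMSO vehicle wells set as 100%.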

IC50 (second compound 0.000949 µM): > 1 µM
IC50 (second compound 0.003 µM): > 1 µM
IC50 (second compound 0.00949 µM): > 1 µM
IC50 (second compound 0.03 µM): > 1 µM
IC50 (second compound 0.0949 µM): > 1 µM
IC50 (second compound 0.3 µM): > 1 µM
Structure (SMILES): CCN1CCN(Cc2ccc(Nc3ncc(F)c(-c4cc(F)c5nc(C)n(C(C)C)c5c4)n3)nc2)CC1 + CCn1c(-c2cccnc2C(C)OC)c2c3cc(ccc31)N1CCOC(CC(NC(=O)C(C(C)C)N(C)C(=O)C3(F)CCN(C(=O)C#CC(C)(C)N(C)C)CC3)C(=O)N3CCCC(N3)C(=O)OCC(C)(C)C2)C1
viability, T/C (second compound 0.000949 µM, first compound 0.00316 µM): 93.4%
viability, T/C (second compound 0.000949 µM, first compound 0.01 µM): 103%
viability, T/C [1]: 100%
viability, T/C [2]: 83.7%
viability, T/C [3]: 96.5%
viability, T/C [4]: 64.5%
viability, T/C (second compound 0.003 µM, first compound 0.00316 µM): 92%
viability, T/C (second compound 0.003 µM, first compound 0.01 µM): 92.4%
viability, T/C [5]: 89.6%
viability, T/C [6]: 99.3%
viability, T/C [7]: 74.2%
viability, T/C [8]: 67.8%
viability, T/C (second compound 0.00949 µM, first compound 0.00316 µM): 101%
viability, T/C (second compound 0.00949 µM, first compound 0.01 µM): 101%
viability, T/C [9]: 94.3%
viability, T/C [10]: 89.1%
viability, T/C [11]: 74.5%
viability, T/C [12]: 75%
viability, T/C (second compound 0.03 µM, first compound 0.00316 µM): 86.2%
viability, T/C (second compound 0.03 µM, first compound 0.01 µM): 91%
viability, T/C [13]: 87.6%
viability, T/C [14]: 72.8%
viability, T/C [15]: 72%
viability, T/C [16]: 67.4%
viability, T/C (second compound 0.0949 µM, first compound 0.00316 µM): 104%
viability, T/C (second compound 0.0949 µM, first compound 0.01 µM): 85.2%
viability, T/C [17]: 84.4%
viability, T/C [18]: 75.9%
viability, T/C [19]: 80%
viability, T/C [20]: 74%
viability, T/C (second compound 0.3 µM, first compound 0.00316 µM): 80.7%
viability, T/C (second compound 0.3 µM, first compound 0.01 µM): 84.4%
viability, T/C [21]: 73.2%
viability, T/C [22]: 75.2%
viability, T/C [23]: 75.9%
viability, T/C [24]: 57.4%

IC50 (second compound 0.000949 µM): > 10 µM
IC50 (second compound 0.003 µM): > 10 µM
IC50 (second compound 0.00949 µM): > 10 µM
IC50 (second compound 0.03 µM): > 10 µM
IC50 (second compound 0.0949 µM): > 10 µM
IC50 (second compound 0.3 µM): 9.48 µM
Structure (SMILES): C[C@@H](NC(=O)c1ncnc(N)c1Cl)c1ncc(C(=O)Nc2cc(C(F)(F)F)c(Cl)cn2)s1 + CCn1c(-c2cccnc2C(C)OC)c2c3cc(ccc31)N1CCOC(CC(NC(=O)C(C(C)C)N(C)C(=O)C3(F)CCN(C(=O)C#CC(C)(C)N(C)C)CC3)C(=O)N3CCCC(N3)C(=O)OCC(C)(C)C2)C1
viability, T/C [1]: 101%
viability, T/C [2]: 91.7%
viability, T/C [3]: 100%
viability, T/C [4]: 85.9%
viability, T/C [25]: 72.2%
viability, T/C [26]: 54.5%
viability, T/C [5]: 88.6%
viability, T/C [6]: 89.4%
viability, T/C [7]: 86.2%
viability, T/C [8]: 70.6%
viability, T/C [27]: 71%
viability, T/C [28]: 59.6%
viability, T/C [9]: 87.1%
viability, T/C [10]: 98.5%
viability, T/C [11]: 83.7%
viability, T/C [12]: 82.4%
viability, T/C [29]: 91%
viability, T/C [30]: 53%
viability, T/C [13]: 81.3%
viability, T/C [14]: 85.6%
viability, T/C [15]: 102%
viability, T/C [16]: 78.3%
viability, T/C [31]: 75.6%
viability, T/C [32]: 79.5%
viability, T/C [17]: 89.9%
viability, T/C [18]: 90.3%
viability, T/C [19]: 78.5%
viability, T/C [20]: 70.7%
viability, T/C [33]: 74%
viability, T/C [34]: 58.3%
viability, T/C [21]: 75.2%
viability, T/C [22]: 76.4%
viability, T/C [23]: 65.7%
viability, T/C [24]: 72.4%
viability, T/C [35]: 59%
viability, T/C [36]: 49.7%

IC50 (second compound 0.000949 µM): > 10 µM
IC50 (second compound 0.003 µM): > 10 µM
IC50 (second compound 0.00949 µM): > 10 µM
IC50 (second compound 0.03 µM): > 10 µM
IC50 (second compound 0.0949 µM): > 10 µM
IC50 (second compound 0.3 µM): > 10 µM
Structure (SMILES): Cc1nc(N2CCC3(CC2)COC(C)C3N)c(CO)nc1Sc1ccnc(N)c1Cl (stereo unspecified) + CCn1c(-c2cccnc2C(C)OC)c2c3cc(ccc31)N1CCOC(CC(NC(=O)C(C(C)C)N(C)C(=O)C3(F)CCN(C(=O)C#CC(C)(C)N(C)C)CC3)C(=O)N3CCCC(N3)C(=O)OCC(C)(C)C2)C1
viability, T/C [1]: 96.6%
viability, T/C [2]: 87.4%
viability, T/C [3]: 84%
viability, T/C [4]: 85.1%
viability, T/C [25]: 89.1%
viability, T/C [26]: 79.4%
viability, T/C [5]: 93.1%
viability, T/C [6]: 103%
viability, T/C [7]: 81%
viability, T/C [8]: 68.9%
viability, T/C [27]: 82%
viability, T/C [28]: 71%
viability, T/C [9]: 110%
viability, T/C [10]: 92.9%
viability, T/C [11]: 94.7%
viability, T/C [12]: 77.6%
viability, T/C [29]: 87.6%
viability, T/C [30]: 64.3%
viability, T/C [13]: 93.3%
viability, T/C [14]: 91.2%
viability, T/C [15]: 92.2%
viability, T/C [16]: 69.2%
viability, T/C [31]: 74.8%
viability, T/C [32]: 73.9%
viability, T/C [17]: 97.3%
viability, T/C [18]: 85.4%
viability, T/C [19]: 72.3%
viability, T/C [20]: 87.3%
viability, T/C [33]: 70.8%
viability, T/C [34]: 85.5%
viability, T/C [21]: 71.7%
viability, T/C [22]: 65.4%
viability, T/C [23]: 60.2%
viability, T/C [24]: 66%
viability, T/C [35]: 70.8%
viability, T/C [36]: 66.2%
